Results as given in patent US20150105252A1, “SUBSTITUTED PYRAZOLES AS HERBICIDES” (E I DU PONT DE NEMOURS AND COMPANY, priority 2013, published 2015).

Legend:
bluegrass = assay: Test E preemergence; format: in vivo, Poa annua; conditions: 21 days, scale 0 to 100
Source text: (§1) Seeds of plant species selected from bermudagrass (Cynodon dactylon), Surinam grass (Brachiaria decumbens), crabgrass, large (large crabgrass, Digitaria sanguinalis), crabgrass, naked (naked crabgrass, Digitaria nuda), foxtail, green (green foxtail, Setaria viridis), johnsongrass (Sorghum halepense), kochia (Kochia scoparia), morningglory (pitted morningglory, Ipomoea lacunosa), nutsedge, purple (purple nutsedge, Cyperus rotundus), ragweed (common ragweed, Ambrosia elation), mustard, black (black mustard, Brassica nigra), guineagrass (Panicum maximum), dallisgrass (Paspalum dilatatum), barnyardgrass (Echinochloa crus-galli), sandbur (southern sandbur, Cenchrus echinatus), sowthistle (common sowthistle, Sonchus oleraceous), ryegrass, Italian (Italian ryegrass, Lolium multiflorum), signalgrass (broadleaf signalgrass, Brachiaria platyphylla), dayflower, VA (Virginia (VA) dayflower, Commelina virginica), bluegrass (annual bluegrass, Poa annua), quackgrass (Elytrigia repens), mallow (common mallow, Malva sylvestris), buckwheat, wild (wild buckwheat, Polygonum convolvulus), leafy spurge (Euphorbia esula), common chickweed (Stellaria media), wild poinsettia (Euphorbia heterophylla), pigweed, palmer (palmer pigweed, Amaranthus palmeri), and pigweed (redroot pigweed, Amaranthus retroflexus) were planted into a blend of loam soil and sand and treated preemergence with test chemicals formulated in a non-phytotoxic solvent mixture which included a surfactant.
(§2) Treated plants and controls were maintained in a greenhouse for 21 days, after which time all species were compared to controls and visually evaluated. Plant response ratings, summarized in Table E, are based on a scale of 0 to 100 where 0 is no effect and 100 is complete control. A dash (-) response means no test result.

pigweed, palmer = assay: Test F postemergence; format: in vivo, Amaranthus palmeri; conditions: scale 0 to 100
Source text: (§3) Seeds of plant species selected from corn (Zea mays), soybean (Glycine max), velvetleaf (Abutilon theophrasti), lambsquarters (Chenopodium album), wild poinsettia (Euphorbia heterophylla), pigweed, palmer (palmer pigweed, Amaranthus palmeri), common waterhemp (Amaranthus rudis), surinam grass (Brachiaria decumbens), large crabgrass (Digitaria sanguinalis), crabgrass, Brazil (Brazilian crabgrass, Digitaria horizontalis), fall panicum (Panicum dichotomiflorum), giant foxtail (Setaria faberii), green foxtail (Setaria viridis), goosegrass (Eleusine indica), johnsongrass (Sorghum halepense), common ragweed (Ambrosia elation), barnyardgrass (Echinochloa crus-galli), southern sandbur (Cenchrus echinatus), arrowleaf sida (Sida rhombifolia), Italian ryegrass (Lolium multiflorum), dayflower, VA (Virginia (VA) dayflower, Commelina virginica), field bindweed (Convolvulus arvensis), cocklebur (common cocklebur, Xanthium strumarium), morningglory (Ipomoea coccinea), nightshade (eastern black nightshade, Solanum ptycanthum), kochia (Kochia scoparia), yellow nutsedge (Cyperus esculentus), and hairy beggarticks (Bidens pilosa), were planted into a silt loam soil and treated preemergence with test chemicals formulated in a non-phytotoxic solvent mixture which included a surfactant.
(§4) At the same time, plants from these crop and weed species and also horseweed (Canada horseweed, Conyza canadensis), smartweed (ladysthumb smartweed, Polygonum persicaria), waterhemp_RES1, (ALS & Triazine resistant common waterhemp, Amaranthus rudis), and waterhemp_RES2, (ALS & HPPD resistant common waterhemp, Amaranthus rudis) were treated with postemergence applications of test chemicals formulated in the same manner. Plants ranged in height from 2 to 18 cm for postemergence treatments (1- to 4-leaf stage). Treated plants and controls were maintained in a greenhouse for 14 to 21 days, after which time all species were compared to controls and visually evaluated. Plant response ratings, summarized in Table F, are based on a scale of 0 to 100 where 0 is no effect and 100 is complete control. A dash (-) response means no test result.

Italian ryegrass = assay: Test F postemergence; format: in vivo, Lolium multiflorum; conditions: scale 0 to 100
Source text: as §3, §4

dayflower, VA = assay: Test E preemergence; format: in vivo, Commelina virginica; conditions: 21 days, scale 0 to 100
Source text: as §1, §2

horseweed = assay: Test F postemergence; format: in vivo, Conyza canadensis; conditions: scale 0 to 100
Source text: as §3, §4

ducksalad = assay: Test C flooded paddy test; format: in vivo, Heteranthera limosa; conditions: Flood
How it was run: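 Pots were flooded to 3 cm above the soil surface at treatment, compound applied directly to the paddy water, and that depth held throughout. Plants were kept in a greenhouse for 13 to 15 days, then visually rated against untreated controls.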

[1] = 31 g ai/ha, scale 0 to 100 (0 no effect, 100 complete control)
[2] = 62 g ai/ha, scale 0 to 100 (0 no effect, 100 complete control)
[3] = 125 g ai/ha, scale 0 to 100 (0 no effect, 100 complete control)

Row | SMILES | Plant response rating, Bluegrass (bluegrass; 16 g ai/ha) | Plant response rating, Bluegrass (bluegrass; 31 g ai/ha) | Plant response rating, Bluegrass (bluegrass; 62 g ai/ha) | Plant response rating, Bluegrass (bluegrass; 125 g ai/ha) | Plant response rating, Bluegrass (bluegrass; 250 g ai/ha) | Plant response rating, Pigweed, Palmer (pigweed, palmer; Postemergence, 31 g ai/ha) | Plant response rating, Pigweed, Palmer (pigweed, palmer; Postemergence, 125 g ai/ha) | Plant response rating, Pigweed, Palmer (pigweed, palmer; Postemergence, 250 g ai/ha) | Plant response rating, Pigweed, Palmer (pigweed, palmer; postemergence, 62 g ai/ha) | Plant response rating, Pigweed, Palmer (pigweed, palmer; postemergence, 500 g ai/ha) | Plant response rating, Italian Ryegrass (Italian ryegrass; Postemergence, 31 g ai/ha) | Plant response rating, Italian Ryegrass (Italian ryegrass; Postemergence, 125 g ai/ha) | Plant response rating, Italian Ryegrass (Italian ryegrass; Postemergence, 250 g ai/ha) | Plant response rating, Italian Ryegrass (Italian ryegrass; postemergence, 62 g ai/ha) | Plant response rating, Italian Ryegrass (Italian ryegrass; postemergence, 500 g ai/ha) | Plant response rating, Dayflower, VA (dayflower, VA; 16 g ai/ha) | Plant response rating, Dayflower, VA (dayflower, VA; 31 g ai/ha) | Plant response rating, Dayflower, VA (dayflower, VA; 62 g ai/ha) | Plant response rating, Dayflower, VA (dayflower, VA; 125 g ai/ha) | Plant response rating, Dayflower, VA (dayflower, VA; 250 g ai/ha) | other results
1 | CCc1cc(C(=O)NCC(F)(F)F)nn1Cc1ccnc(C(F)(F)F)c1 [Compound 78, 5-ethyl-N-(2,2,2-trifluoroethyl)-1-[[(2-trifluoromethyl)-4-pyridinyl]methyl]-1H-pyrazole-3-carboxamide] | 40 | 75 | 90 | 100 | 100 | 50 | 70 | 90 | 60 | 98 | 0 | 40 | 60 | 10 | 90 | 85 | 100 | 100 | 100 | 100 | Plant response rating, Horseweed (horseweed; Postemergence, 31 g ai/ha): 25; Plant response rating, Horseweed (horseweed; Postemergence, 125 g ai/ha): 40; Plant response rating, Horseweed (horseweed; Postemergence, 250 g ai/ha): 50; Plant response rating, Horseweed (horseweed; postemergence, 62 g ai/ha): 30; Plant response rating, Horseweed (horseweed; postemergence, 500 g ai/ha): 75
2 | CCc1cc(C(=O)NC(C)C)nn1Cc1ccnc(C(F)(F)F)c1 [Compound 103] | 40 | 90 | 95 | 98 | 100 | – | – | – | – | – | – | – | – | – | – | 80 | 98 | 100 | 100 | 100 | –
3 | CCOc1cc(C(=O)NCC(F)(F)F)nn1Cc1ccnc(C(F)(F)F)c1 [Compound 104] | 85 | 100 | 100 | 100 | 100 | 60 | 70 | 75 | 80 | 95 | 0 | 35 | 60 | 15 | 85 | 98 | 98 | 100 | 100 | 100 | Plant response rating, Horseweed (horseweed; Postemergence, 31 g ai/ha): 25; Plant response rating, Horseweed (horseweed; Postemergence, 125 g ai/ha): 35; Plant response rating, Horseweed (horseweed; Postemergence, 250 g ai/ha): 35; Plant response rating, Horseweed (horseweed; postemergence, 62 g ai/ha): 30; Plant response rating, Horseweed (horseweed; postemergence, 500 g ai/ha): 45
4 | CCCc1cc(C(=O)NCC(F)(F)F)nn1Cc1ccnc(C(F)(F)F)c1 [Compound 105] | 40 | 70 | 100 | 100 | 100 | 30 | 60 | 75 | 25 | 80 | 0 | 30 | 65 | 15 | 90 | 35 | 75 | 95 | 95 | 100 | Plant response rating, Horseweed (horseweed; Postemergence, 31 g ai/ha): 20; Plant response rating, Horseweed (horseweed; Postemergence, 125 g ai/ha): 35; Plant response rating, Horseweed (horseweed; Postemergence, 250 g ai/ha): 50; Plant response rating, Horseweed (horseweed; postemergence, 62 g ai/ha): 25; Plant response rating, Horseweed (horseweed; postemergence, 500 g ai/ha): 70
5 | CCCNC(=O)c1cc(CCCl)n(Cc2ccnc(C(F)(F)F)c2)n1 [Compound 145] | – | – | – | – | – | – | – | – | – | – | – | – | – | – | – | – | – | – | – | – | Plant response rating, Ducksalad (ducksalad; [1]): 100; Plant response rating, Ducksalad (ducksalad; [2]): 100; Plant response rating, Ducksalad (ducksalad; 125 g ai/ha, scale 0 to 100): 100; Plant response rating, Ducksalad (ducksalad; 250 g ai/ha, scale 0 to 100): 100
6 | CCOc1cc(C(=O)NC(C)C)nn1Cc1ccnc(C(F)(F)F)c1 [Compound 188] | – | – | – | – | – | 50 | 50 | 60 | 50 | 70 | 5 | 30 | 60 | 10 | 85 | – | – | – | – | – | Plant response rating, Horseweed (horseweed; Postemergence, 31 g ai/ha): 20; Plant response rating, Horseweed (horseweed; Postemergence, 125 g ai/ha): 30; Plant response rating, Horseweed (horseweed; Postemergence, 250 g ai/ha): 40; Plant response rating, Horseweed (horseweed; postemergence, 62 g ai/ha): 30; Plant response rating, Horseweed (horseweed; postemergence, 500 g ai/ha): 50
7 | CCOc1cc(C(=O)NC2CC2)nn1Cc1ccnc(C(F)(F)F)c1 [Compound 189] | 50 | 50 | 80 | – | – | – | – | – | – | – | – | – | – | – | – | 90 | 100 | 100 | – | – | Plant response rating, Bluegrass (bluegrass; 4 g ai/ha): 0; Plant response rating, Bluegrass (bluegrass; 8 g ai/ha): 0; Plant response rating, Dayflower, VA (dayflower, VA; 4 g ai/ha): 0; Plant response rating, Dayflower, VA (dayflower, VA; 8 g ai/ha): 30
8 | CCONC(=O)c1cc(OCC)n(Cc2ccnc(C(F)(F)F)c2)n1 [Compound 195] | – | – | – | – | – | – | – | – | – | – | – | – | – | – | – | – | – | – | – | – | Plant response rating, Ducksalad (ducksalad; [1]): 0; Plant response rating, Ducksalad (ducksalad; [2]): 20; Plant response rating, Ducksalad (ducksalad; [3]): 85; Plant response rating, Ducksalad (ducksalad; 250 g ai/ha, scale 0 to 100): 85
9 | CCc1cc(C(=O)NC2CC2)nn1Cc1ccnc(OCC(F)(F)F)c1 [Compound 200] | – | – | – | – | – | – | – | – | – | – | – | – | – | – | – | – | – | – | – | – | Plant response rating, Ducksalad (ducksalad; [1]): 30; Plant response rating, Ducksalad (ducksalad; [2]): 30; Plant response rating, Ducksalad (ducksalad; [3]): 100; Plant response rating, Ducksalad (ducksalad; 250 g ai/ha, scale 0 to 100): 100
10 | CCc1cc(C(=O)NC2CC2)nn1Cc1cc(C(F)(F)C(F)(F)F)nn1C [Compound 226] | – | – | – | – | – | – | – | – | – | – | – | – | – | – | – | – | – | – | – | – | Plant response rating, Ducksalad (ducksalad; [1]): 30; Plant response rating, Ducksalad (ducksalad; [2]): 60; Plant response rating, Ducksalad (ducksalad; [3]): 75
